Results on 28 compounds are retold here after patent US10472347B2, “Aminopyrazine compounds with A2A antagonist properties” (Merck Sharp & Dohme Corp., priority 2014, dated 2019).

T1 sequence (P29274 whole entry): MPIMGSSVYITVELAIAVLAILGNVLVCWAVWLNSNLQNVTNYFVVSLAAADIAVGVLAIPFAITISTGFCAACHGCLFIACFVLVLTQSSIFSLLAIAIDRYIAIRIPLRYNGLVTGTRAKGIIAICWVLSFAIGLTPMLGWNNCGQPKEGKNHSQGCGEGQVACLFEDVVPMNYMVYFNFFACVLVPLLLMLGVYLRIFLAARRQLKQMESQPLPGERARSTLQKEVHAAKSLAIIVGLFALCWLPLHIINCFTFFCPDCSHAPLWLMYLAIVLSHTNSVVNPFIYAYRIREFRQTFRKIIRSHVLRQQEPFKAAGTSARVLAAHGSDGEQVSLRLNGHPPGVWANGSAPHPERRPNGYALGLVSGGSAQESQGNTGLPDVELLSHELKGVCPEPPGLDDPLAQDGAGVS

The assay addresses T1, human A2a receptor (Homo sapiens, UniProt P29274).
T1 construct: purchased Perkin-Elmer RBHA2AM400UA; host or cells: HEK293 cells (membranes)
Description: A2a competition binding assay, Scintillation Proximity technology. To be noted: membranes from HEK293 cells expressing human A2a receptor; Ki by Cheng-Prusoff equation. The essentials: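 Membranes from HEK293 cells expressing human A2a, adenosine deaminase-treated, incubated 1 h at room temperature with compound (3000 to 0.15 nM) and 0.5 nM tritiated pyrazolotriazolopyrimidine radioligand on WGA SPA beads in Ca/Mg-free PBS + 10 mM MgCl2. Non-specific binding with 1 μM CGS15943; Ki by Cheng-Prusoff.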
By Ki is commonly meant the equilibrium dissociation constant of an inhibitor or competing ligand from its target. Low readings indicate a stronger hold on the target, high ones a looser hold on the target. As to `C#C[C@H]1CCC[C@@H]1NC(=O)c1nc(C)c(-c2ncco2)nc1N` [Ex-209, 3-amino-N-[(1S,2R)-2-ethynylcyclopentyl]-6-methyl-5-(1,3-oxazol-2-yl)pyrazine-2-carboxamide], the affinity corresponds to a Ki of 2.97 nM.
Consider `Cc1nc(C(=O)NC2CCCC2F)c(N)nc1-c1ncco1` (stereo not shown) [Ex-210, 3-amino-N-(2-fluorocyclopentyl)-6-methyl-5-(1,3-oxazol-2-yl)pyrazine-2-carboxamide], for which the affinity corresponds to a Ki of 1.42 nM.
As for `Cc1nc(C(=O)N[C@H]2CCC[C@@H]2O)c(N)nc1-c1ncco1` [Ex-211, 3-amino-N-[(1S,2S)-2-hydroxycyclopentyl]-6-methyl-5-(1,3-oxazol-2-yl)pyrazine-2-carboxamide], the figure is 7.37 nM; as for `Cc1nc(C(=O)N[C@@H]2CCC[C@@H]2O)c(N)nc1-c1ncco1` [Ex-212, 3-amino-N-[(1R,2S)-2-hydroxycyclopentyl]-6-methyl-5-(1,3-oxazol-2-yl)pyrazine-2-carboxamide], 98.9 nM; as for `Cc1nc(C(=O)N[C@@H]2C[C@H]3CC[C@@H]2C3)c(N)nc1-c1ncco1` [Ex-213, 3-amino-N-[(1R,2R,4S)-bicyclo[2.2.1]hept-2-yl]-6-methyl-5-(1,3-oxazol-2-yl)pyrazine-2-carboxamide], 0.42 nM.
`Cc1nc(C(=O)NCc2nccc3c2ccn3C)c(N)nc1-c1ncco1` [Ex-214] had a Ki of 0.689 nM.
The result for `Cc1nc(C(=O)NCc2nccnc2C(F)(F)F)c(N)nc1-c1ncco1` [Ex-215, 3-amino-6-methyl-5-(1,3-oxazol-2-yl)-N-{[3-(trifluoromethyl)pyrazin-2-yl]methyl}pyrazine-2-carboxamide] reads 1.44 nM.
The result for `CCn1cc2cccc(CNC(=O)c3nc(C)c(-c4ncco4)nc3N)c2n1` [Ex-216, 3-amino-N-[(2-ethyl-2H-indazol-7-yl)methyl]-6-methyl-5-(1,3-oxazol-2-yl)pyrazine-2-carboxamide] reads 0.123 nM; that for `Cc1nc(C(=O)NCc2cccc3c2ccn3CC(F)F)c(N)nc1-c1ncco1` [Ex-217, 3-amino-N-{[1-(2,2-difluoroethyl)-1H-indol-4-yl]methyl}-6-methyl-5-(1,3-oxazol-2-yl)pyrazine-2-carboxamide], 1.4 nM; that for `Cc1nc(C(=O)NCc2cccc3c2ncn3C)c(N)nc1-c1ncco1` [Ex-218, 3-amino-6-methyl-N-[(1-methyl-1H-benzimidazol-4-yl)methyl]-5-(1,3-oxazol-2-yl)pyrazine-2-carboxamide], 0.309 nM.
The compound `Cc1nc(C(=O)NCc2cccc3ncn(C)c23)c(N)nc1-c1ncco1` [Ex-219, 3-amino-6-methyl-N-[(1-methyl-1H-benzimidazol-7-yl)methyl]-5-(1,3-oxazol-2-yl)pyrazine-2-carboxamide] displayed a Ki of 36.5 nM.
As for `Cc1nc(C(=O)N[C@H]2CCc3cc(Cl)ccc32)c(N)nc1-c1ncco1` [Ex-222], the figure is 9.22 nM.
As for `Cc1nc(C(=O)NC2CC(O)c3cccnc32)c(N)nc1-c1ncco1` (stereo not shown) [Ex-223, 3-amino-N-(5-hydroxy-6,7-dihydro-5H-cyclopenta[b]pyridin-7-yl)-6-methyl-5-(1,3-oxazol-2-yl)pyrazine-2-carboxamide], the figure is 2.98 nM; as for `Cc1nc(C(=O)NCc2ncccc2CF)c(N)nc1-c1ncco1` [Ex-224, 3-amino-N-{[3-(fluoromethyl)pyridin-2-yl]methyl}-6-methyl-5-(1,3-oxazol-2-yl)pyrazine-2-carboxamide], 0.201 nM; as for `Cc1nc(C(=O)NCc2ncccc2CO)c(N)nc1-c1ncco1` [Ex-225, 3-amino-N-{[3-(hydroxymethyl)pyridin-2-yl]methyl}-6-methyl-5-(1,3-oxazol-2-yl)pyrazine-2-carboxamide], 0.178 nM.
As for `Cc1nc(C(=O)NCc2cccc3c2cnn3CC(F)F)c(N)nc1-c1ncco1` [Ex-228, 3-amino-N-{[1-(2,2-difluoroethyl)-1H-indazol-4-yl]methyl}-6-methyl-5-(1,3-oxazol-2-yl)pyrazine-2-carboxamide], the figure is 1.74 nM; as for `Cc1nc(C(=O)NCc2cccc3c2ncn3CC2CC2)c(N)nc1-c1ncco1` [Ex-229, 3-amino-N-{[1-(cyclopropylmethyl)-1H-benzimidazol-4-yl]methyl}-6-methyl-5-(1,3-oxazol-2-yl)pyrazine-2-carboxamide], 0.358 nM.
Take `Cc1nc(C(=O)NC2Cc3ccccc3C2)c(N)nc1-c1ncco1` [Ex-235, 3-amino-N-(2,3-dihydro-1H-inden-2-yl)-6-methyl-5-(1,3-oxazol-2-yl)pyrazine-2-carboxamide]: the Ki came to 0.243 nM.
`Cc1ccc(C(C)(C)O)nc1CNC(=O)c1nc(C)c(-c2ncco2)nc1N` [Ex-236, 3-amino-N-{[6-(1-hydroxy-1-methylethyl)-3-methylpyridin-2-yl]methyl}-6-methyl-5-(1,3-oxazol-2-yl)pyrazine-2-carboxamide] showed a Ki of 1.61 nM.
The result for `COc1ccc(C(C)(C)O)nc1CNC(=O)c1nc(C)c(-c2ncco2)nc1N` [Ex-237, 3-amino-N-{[6-(1-hydroxy-1-methylethyl)-3-methoxypyridin-2-yl]methyl}-6-methyl-5-(1,3-oxazol-2-yl)pyrazine-2-carboxamide] reads 1.77 nM; that for `Cc1nc(C(=O)NC2CC(O)c3cccnc32)c(N)nc1-c1ncco1` (stereo not shown) [Ex-240A, 3-amino-N-(5-hydroxy-6,7-dihydro-5H-cyclopenta[b]pyridin-7-yl)-6-methyl-5-(1,3-oxazol-2-yl)pyrazine-2-carboxamide], 40.5 nM.
The result for `Cc1nc(C(=O)NC2CC(O)c3cccnc32)c(N)nc1-c1ncco1` (stereo not shown) [Ex-240B, 3-amino-N-(5-hydroxy-6,7-dihydro-5H-cyclopenta[b]pyridin-7-yl)-6-methyl-5-(1,3-oxazol-2-yl)pyrazine-2-carboxamide] reads 1.73 nM; that for `CCn1ncc2c(CNC(=O)c3nc(C)c(-c4ncco4)nc3N)cccc21` [Ex-242, 3-amino-N-[(1-ethyl-1H-indazol-4-yl)methyl]-6-methyl-5-(1,3-oxazol-2-yl)pyrazine-2-carboxamide], 1.09 nM.
As for `CCn1cc2c(CNC(=O)c3nc(C)c(-c4ncco4)nc3N)cccc2n1` [Ex-243, 3-amino-N-[(2-ethyl-2H-indazol-4-yl)methyl]-6-methyl-5-(1,3-oxazol-2-yl)pyrazine-2-carboxamide], the figure is 15.1 nM; as for `Cc1nc(C(=O)NCc2ncccc2C(F)(F)F)c(N)nc1-c1cnco1` [Ex-249, 3-amino-6-methyl-5-(1,3-oxaol-5-yl)-N-{[3-(trifluoromethyl)-pyridin-2-yl]-methyl}pyrazine-2-carboxamide], 3.45 nM.
`Nc1nc(-c2cnco2)c(Cl)nc1C(=O)NCc1cccc2cccnc12` [Ex-250, 3-amino-6-chloro-5-(1,3-oxazol-5-yl)-N-(quinolin-8-ylmethyl)pyrazine-2-carboxamide] displayed a Ki of 2.4 nM.
In the case of `Cc1nc(C(=O)NCc2c(F)cccc2F)c(N)nc1-c1cnco1` [Ex-251, 3-amino-N-(2,6-difluorobenzyl)-6-methyl-5-(1,3-oxazol-5-yl)pyrazine-2-carboxamide], the Ki is 1.1 nM.
Regarding `Cc1cccnc1CNC(=O)c1nc(C)c(-c2cnco2)nc1N` [Ex-252, 3-amino-6-methyl-N-[(3-methylpyridin-2-yl)methyl]-5-(1,3-oxazol-5-yl)pyrazine-2-carboxamide], the Ki came to 1.81 nM.
